Results: patent US8633005B2, “Isocyclomaltooligosaccharide(s), isocyclomaltooligosaccharide-forming enzyme, their preparation and uses” (Hayashibara Co., Ltd., priority 2004, dated 2014)
Where two headings read alike, the source gives them in different places.

Experiments:
ICM-forming enzyme [1] = assay: Action on various saccharides (substrate specificity, TLC); assay type: biochemical, Bacillus circulans AM7; set-up: key: −: Not changed; +: Spot of substrate is slightly decreased and the formation of ICM are detected; ++: Spot of substrate is markedly decreased and the formation of ICM are detected; +++: Spot of substrate is virtually disappeared and the formation of ICM are detected; settings: substrate 2% (w/v), one unit/g-substrate enzyme, 40° C., pH 6.0, 24 hours
Description: Substrate specificity of ICM-forming enzyme was investigated using various saccharides as substrates. Substrate solutions were prepared by dissolving maltose, maltotriose, maltotetraose, maltopentaose, maltohexaose, maltoheptaose, neotrehalose, trehalose, kojibiose, nigerose, isomaltose, isomaltotriose, panose, isopanose, maltitol, maltotriitol, α-, β-, or γ-cyclodextrin, amylose, soluble starch, glycogen, pullulan or dextran in water. Each substrate solution was admixed with acetate buffer (pH 6.0) and CaCl2 to give final concentrations of 20 mM and 1 mM, respectively. […] Substrate concentration was set to 2% (w/v) and followed by the enzyme reaction at 40° C. and pH 6.0 for 24 hours. To examine the saccharides in each mixture before and after the reaction, saccharides were separated by silica gel thin-layer chromatography (hereinafter, simply abbreviated as “TLC”) using “KIESELGEL 60”, a TLC aluminum plate (10×20 cm) and a solvent (n-butanol/pyridine/water, volume ratio of 6:4:1) and two-times ascending method. The separated saccharides on the plate were detected by visualizing the spots with sulfate-methanol method. By the above TLC analyses, the enzymatic action and the degree of the reaction of ICM-forming enzyme on each substrate were confirmed.

ICM-forming enzyme [2] = assay: Effects of metal ions on the enzyme activity; assay type: biochemical, Bacillus circulans AM7
[3] = Reducing power by the Somogyi-Nelson method; assay type: physicochemical
Source text: It was concluded that Saccharides I and II were substantially non-reducing saccharides.

[4] = Optimum temperature and pH for the enzyme reaction; assay type: biochemical, Bacillus circulans AM7; settings: for Optimum pH: 30° C. for 30 min; for Optimum temperature: pH 6.0 for 30 min
Description: The enzyme activity of ICM-forming enzyme of the present invention can be assayed as follows: A substrate solution is prepared by dissolving amylose in 50 mM acetate buffer (pH 6.0) containing 1 mM CaCl2 to give a concentration of 1.25% (w/v). 0.2 ml of an enzyme solution is added to 0.8 ml of the substrate solution, and the mixture solution is incubated at 30° C. for 30 mm. After stopping the reaction by heating at about 100° C. for 10 min, the reaction mixture is admixed with 4,000 units/g-solid of α-glucosidase and 250 units/g-solid of glucoamylase to hydrolyze the remaining soluble starch and concomitant oligosaccharides, and followed by the enzyme treatment at 50° C. for one hour. The amount of ICG5 contained in the treated mixture is determined by HPLC described later in Experiment 1. One unit activity of ICM-forming enzyme is defined as the amount of enzyme which forms one μmole of ICG5 per minute under the above conditions.
The results are in FIG. 9 (Optimum temperature) and FIG. 10 (Optimum pH), respectively.

[5] = enzyme purified from Bacillus circulans AM7
[6] = recombinant enzyme from transformant ETAM1

OC[C@H]1O[C@H](O[C@H]2O[C@H](CO)[C@@H](O)[C@H](O)[C@H]2O)[C@H](O)[C@@H](O)[C@@H]1O [Trehalose, trehalose]
Action (ICM-forming enzyme [1]): −

OC[C@H]1O[C@H](O[C@H]2[C@H](O)[C@@H](O)C(O)O[C@@H]2CO)[C@H](O)[C@@H](O)[C@@H]1O (mixture of isomers) [Maltose, maltose]
Action (ICM-forming enzyme [1]): −

[Cl-].[Cl-].[Co+2] [CoCl2]
Relative activity (ICM-forming enzyme [2]): 100%

amylose
Action (ICM-forming enzyme [1]): +++

[Ca+2].[Cl-].[Cl-] [CaCl2]
Relative activity (ICM-forming enzyme [2]; 1 mM metal salt, None = 100): 105%

maltoheptaose
Action (ICM-forming enzyme [1]): +++

OC[C@H]1O[C@H](OC[C@H]2OC(O)[C@H](O)[C@@H](O)[C@@H]2O)[C@H](O)[C@@H](O)[C@@H]1O (stereo partly drawn) [Isomaltose, isomaltose]
Action (ICM-forming enzyme [1]): −

OC[C@@H](O)[C@@H](O[C@H]1O[C@H](CO)[C@@H](O)[C@H](O)[C@H]1O)[C@H](O)[C@@H](O)CO [Maltitol, maltitol]
Action (ICM-forming enzyme [1]): −

OCC1OC2OC3C(CO)OC(OC4C(CO)OC(OC5C(CO)OC(OC6C(CO)OC(OCC7OC(OC1C(O)C2O)C(O)C(O)C7O)C(O)C6O)C(O)C5O)C(O)C4O)C(O)C3O [ICG6, cyclo{→6)-α-D-glucopyranosyl-(1→4)-α-D-glucopyranosyl-(1→4)-α-D-glucopyranosyl-(1→4)-α-D-glucopyranosyl-(1→4)-α-D-glucopyranosyl-(1→4)-α-D-glucopyranosyl-(1→}]
Reducing power [3]: less than the measurable limit

OC[C@H]1O[C@H](OC[C@H]2O[C@H](OC[C@H]3OC(O)[C@H](O)[C@@H](O)[C@@H]3O)[C@H](O)[C@@H](O)[C@@H]2O)[C@H](O)[C@@H](O)[C@@H]1O (stereo partly drawn) [Isomaltotriose, isomaltotriose]
Action (ICM-forming enzyme [1]): −

O=C(O)CN(CCN(CC(=O)O)CC(=O)O)CC(=O)O [EDTA]
Inhibition of ICM-forming enzyme activity (ICM-forming enzyme [2]; 1 mM metal salt): inhibited slightly
Relative activity (ICM-forming enzyme [2]; 1 mM metal salt, None = 100): 86%

soluble starch
Action (ICM-forming enzyme [1]): ++

[Cl][Al]([Cl])[Cl] [AlCl3]
Relative activity (ICM-forming enzyme [2]; 1 mM metal salt, None = 100): 106%

[Cl-].[Cl-].[Mg+2] [MgCl2]
Relative activity (ICM-forming enzyme [2]; 1 mM metal salt, None = 100): 110%

OC[C@H]1O[C@@H](O[C@H]2O[C@H](CO)[C@@H](O)[C@H](O)[C@H]2O)[C@H](O)[C@@H](O)[C@@H]1O [Neotrehalose, neotrehalose]
Action (ICM-forming enzyme [1]): −

maltotriose
Action (ICM-forming enzyme [1]): +

OC[C@H]1O[C@H](O[C@H]2C(O)O[C@H](CO)[C@@H](O)[C@@H]2O)[C@H](O)[C@@H](O)[C@@H]1O (stereo partly drawn) [Kojibiose, kojibiose]
Action (ICM-forming enzyme [1]): −

[Cl][Cu][Cl] [CuCl2]
Inhibition of ICM-forming enzyme activity (ICM-forming enzyme [2]; 1 mM metal salt): about 20%
Relative activity (ICM-forming enzyme [2]; 1 mM metal salt, None = 100): 79%

OC[C@@H](O)[C@@H](O[C@H]1O[C@H](CO)[C@@H](O[C@H]2O[C@H](CO)[C@@H](O)[C@H](O)[C@H]2O)[C@H](O)[C@H]1O)[C@H](O)[C@@H](O)CO [Maltotriitol, maltotriitol]
Action (ICM-forming enzyme [1]): −

dextran
Action (ICM-forming enzyme [1]): −

[Cl][Fe][Cl] [FeCl2]
Relative activity (ICM-forming enzyme [2]; 1 mM metal salt, None = 100): 94%

maltohexaose
Action (ICM-forming enzyme [1]): +++

glycogen
Action (ICM-forming enzyme [1]): +

maltopentaose
Action (ICM-forming enzyme [1]): +++

[Cl-].[Cl-].[Sr+2] [SrCl2]
Relative activity (ICM-forming enzyme [2]; 1 mM metal salt, None = 100): 100%

[Cl][Ni][Cl] [NiCl2]
Relative activity (ICM-forming enzyme [2]; 1 mM metal salt, None = 100): 105%

[Cl][Pb][Cl] [PbCl2]
Relative activity (ICM-forming enzyme [2]; 1 mM metal salt, None = 100): 130%

[Cl][Hg][Cl] [HgCl2]
Inhibition of ICM-forming enzyme activity (ICM-forming enzyme [2]; 1 mM metal salt): 45%
Relative activity (ICM-forming enzyme [2]; 1 mM metal salt, None = 100): 55%

OC[C@H]1O[C@H](OC[C@H]2O[C@H](O[C@H]3[C@H](O)[C@@H](O)C(O)O[C@@H]3CO)[C@H](O)[C@@H](O)[C@@H]2O)[C@H](O)[C@@H](O)[C@@H]1O (stereo partly drawn) [Panose, panose]
Action (ICM-forming enzyme [1]): −

OC[C@H]1O[C@H](O[C@H]2[C@H](O)[C@@H](O)[C@@H](O[C@H]3[C@H](O)[C@@H](O)[C@@H](O[C@H]4[C@H](O)[C@@H](O)C(O)O[C@@H]4CO)O[C@@H]3CO)O[C@@H]2CO)[C@H](O)[C@@H](O)[C@@H]1O (stereo partly drawn) [Maltotetraose, maltotetraose]
Action (ICM-forming enzyme [1]): ++

[Cl][Mn][Cl] [MnCl2]
Relative activity (ICM-forming enzyme [2]; 1 mM metal salt, None = 100): 108%

[Cl-].[Cl-].[Zn+2] [ZnCl2]
Relative activity (ICM-forming enzyme [2]; 1 mM metal salt, None = 100): 113%

OC[C@H]1O[C@H](O[C@H]2[C@H](O)[C@@H](CO)OC(O)[C@@H]2O)[C@H](O)[C@@H](O)[C@@H]1O (stereo partly drawn) [Nigerose, nigerose]
Action (ICM-forming enzyme [1]): −

OC[C@H]1O[C@H](O[C@H]2[C@H](O)[C@@H](O)[C@@H](OC[C@H]3OC(O)[C@H](O)[C@@H](O)[C@@H]3O)O[C@@H]2CO)[C@H](O)[C@@H](O)[C@@H]1O (stereo partly drawn) [Isopanose, isopanose]
Action (ICM-forming enzyme [1]): −

pullulan
Action (ICM-forming enzyme [1]): −

[Cl][Fe]([Cl])[Cl] [FeCl3]
Inhibition of ICM-forming enzyme activity (ICM-forming enzyme [2]; 1 mM metal salt): about 20%
Relative activity (ICM-forming enzyme [2]; 1 mM metal salt, None = 100): 82%

[Ba+2].[Cl-].[Cl-] [BaCl2]
Relative activity (ICM-forming enzyme [2]; 1 mM metal salt, None = 100): 99%

B1: ICM-forming enzyme: enzyme from Bacillus circulans AM7 (FERM BP-10111) forming ICM from α-1,4 glucans; amino acid sequence SEQ ID NO:2 (protein)
chain: ASIGTVTENDTIYQIMVDRFNDGDSSNNATGAAIRYGENSEEDFRYMKGGDWQGVIDKLPYIHNMGYTAIWISPVAEPQMTNRENNGTGKNTAYHGYNVKDPNKANPYFGTKEKLKELVDSAHALGIKVIIDVVPNHIGDYMLGTQAFYDIPSLQPAAPFNNPAWYHHNGDINWSLADGRYDQWAQDYLENHDLGGLDDIDFDVPAAKQAIFSSIKGWFDYTGADGARVDAAKLMKPTDIGELQNLLGVNTFGENFDGNAEFVSRWVGTNKEWGMLDFPLFFSVLNSFAYGQSFDANIKGTLAQDSYYGGNANHMVTFIDNHDRNRFLTEAGGSVEKLQNALSFIFTVRGTPVVFQGTEQNKGNGNGQIMTGGIADTWNRWSMVKRDANGNVLENYFNENASTFKHVAKLNEIRKNNPALRTGTQREMWSAQNLYAFSRRIDTGTNVGQEVISAFSNASGGSQTVTLPLRAESTLTAGTVLVNQLNPSDTVTVQAGGVTGKQITVTLGANSAKIYAKTQPVTDTQAPSVPGNVTATVQNASSALVSWSASTDNVGVTGYEIYRNGVKIGTSATTSFTDNGLVGSTNYSYTVKAYDAAMNLSAFSAAALIVTPAGNSVTIYYKQGYTNPYIHYRPVGGTWTTSPGVAIPAAEVAGYNKITINIGAATQLEACFNNGSGIWDSNGGSNYLFGTGTWTYTPTGNIQAGGPVTPTASPTATPTVAPTATPTVTPTPTPTATPTVAPTATPTVAPTATPVPTATPAGNTATIYYKNTAFSNSYIHYKLDGATTWTTSPGVPMQASTFSGYKSITIPLGTATGLTAAFNNGSGTWDSNGGNNYHFGTGSSSLVGGSLTTGEPQADSVTFRVSVPGSTPANAPVYLTGSFNSWNAADTAYLLTRGSDGVYSVTLNLPAGTAVTYKLTRGSWATVETTSSGADITNRTLTPAGGAQTVTISVQRWKDQ
modifications: Bacillus circulans
Optimum pH [4, 5]: 4.5 to 8.0
Optimum temperature [4, 5]: 50 to 55 °C
Optimum pH [4, 6]: 4.5 to 8.0
Optimum temperature [4, 6]: 50 to 55 °C
